{"source": "patent US9695155B2", "about": "“Herbicidal substituted pyrimidinyloxy benzene compounds” (E. I. DU PONT DE NEMOURS AND COMPANY, priority 2013, dated 2017)", "key": {"barley, winter": {"tested_on": "barley, winter", "assay": "Test C postemergence", "type": "in vivo, Hordeum vulgare", "conditions": "for Plant response rating (0 to 100), Barley: postemergence; for Plant response rating, Barley: Postemergence, scale 0 to 100 (0 no effect, 100 complete control)", "from_the_text": "(§1) Seeds of plant species selected from blackgrass (Alopecurus myosuroides), Italian ryegrass (Lolium multiflorum), wheat, winter (winter wheat, Triticum aestivum), galium (catchweed bedstraw, Galium aparine), corn (Zea mays), large (Lg) crabgrass (Digitaria sanguinalis), giant foxtail (Setaria faberii), johnsongrass (Sorghum halepense), lambsquarters (Chenopodium album), morningglory (Ipomoea coccinea), yellow nutsedge (Cyperus esculentus), pigweed (Amaranthus retroflexus), ragweed (common ragweed, Ambrosia elatior), soybean (Glycine max), barnyardgrass (Echinochloa crus-galli), oilseed rape (Brassica napus), waterhemp (common waterhemp, Amaranthus rudis), kochia (Kochia scoparia), wild oat (Avena fatua), surinam grass (Brachiaria decumbens), foxtail, green (green foxtail, Setaria viridis), goosegrass (Eleusine indica), bromegrass, downy (downy bromegrass, Bromus tectorum), nightshade (eastern black nightshade, Solanum ptycanthum), cocklebur (common cocklebur, Xanthium strumarium), cupgrass, woolly (woolly cupgrass, Eriochloa villosa), bermudagrass (Cynodon dactylon), sunflower, (common oilseed sunflower, Helianthus annuus), Russian thistle (Salsola kali), and velvetleaf (Abutilon theophrasti) were planted into a blend of loam soil and sand and treated preemergence with test chemicals formulated in a non-phytotoxic solvent mixture which included a surfactant.\n(§2) At the same time, plants selected from these crop and weed species and also barley, winter (winter barley, Hordeum vulgare), windgrass (Apera spica-venti), chickweed (common chickweed, Stellaria media), deadnettle (henbit deadnettle, Lamium amplexicaule), and canarygrass (littleseed canarygrass, Phalaris minor) were planted in pots containing Redi-Earth® planting medium (Scotts Company, 14111 Scottslawn Road, Marysville, Ohio 43041) comprising spaghnum peat moss, vermiculite, wetting agent and starter nutrients and treated with postemergence applications of test chemicals formulated in the same manner. Plants ranged in height from 2 to 18 cm (1- to 4-leaf stage) for postemergence treatments. Treated plants and controls were maintained in a greenhouse for 13 to 15 days, after which time all species were compared to controls and visually evaluated. Plant response ratings, summarized in Table C, are based on a scale of 0 to 100 where 0 is no effect and 100 is complete control. A dash (-) response means no test result."}, "goosegrass": {"tested_on": "goosegrass", "assay": "Test C preemergence", "type": "in vivo, Eleusine indica", "conditions": "for Goosegrass plant response rating: preemergence, scale 0 (no effect) to 100 (complete control)", "from_the_text": "as §1, §2"}, "nightshade": {"tested_on": "nightshade", "assay": "Test C preemergence", "type": "in vivo, Solanum ptycanthum", "conditions": "for Nightshade plant response rating: preemergence, scale 0 (no effect) to 100 (complete control)", "from_the_text": "as §1, §2"}, "bromegrass, downy [1]": {"tested_on": "bromegrass, downy", "assay": "Test C postemergence", "type": "in vivo, Bromus tectorum", "conditions": "for Plant response rating (0 to 100), Bromegrass, Downy: postemergence; for Plant response rating, Bromegrass, Downy: Postemergence, scale 0 to 100 (0 no effect, 100 complete control)", "from_the_text": "as §1, §2"}, "Russian thistle": {"tested_on": "Russian thistle", "assay": "Test C preemergence", "type": "in vivo, Salsola kali", "conditions": "for Russian Thistle plant response rating: preemergence, scale 0 (no effect) to 100 (complete control)", "from_the_text": "as §1, §2"}, "bermudagrass [2]": {"tested_on": "bermudagrass", "assay": "Test C postemergence", "type": "in vivo, Cynodon dactylon", "conditions": "for Plant response rating (0 to 100), Bermudagrass: postemergence; for Plant response rating, Bermudagrass: Postemergence, scale 0 to 100 (0 no effect, 100 complete control)", "in_short": "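Seeds are planted in blended loam soil and sand and treated preemergence, while seedlings in a peat moss/vermiculite medium receive postemergence sprays at 2 to 18 cm height. All plants stay in the greenhouse for 13 to 15 days before visual comparison with controls on a 0–100 scale.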"}, "bromegrass, downy [3]": {"tested_on": "bromegrass, downy", "assay": "Test C preemergence", "type": "in vivo, Bromus tectorum", "conditions": "for Bromegrass, Downy plant response rating: preemergence, scale 0 (no effect) to 100 (complete control)", "from_the_text": "as §1, §2"}, "bermudagrass [4]": {"tested_on": "bermudagrass", "assay": "Test C preemergence", "type": "in vivo, Cynodon dactylon", "conditions": "for Bermudagrass plant response rating: preemergence, scale 0 (no effect) to 100 (complete control)", "from_the_text": "as §1, §2"}, "smartweed": {"tested_on": "smartweed", "assay": "Test E preemergence", "type": "in vivo, ladysthumb smartweed", "conditions": "for Smartweed plant response rating: scale 0 to 100 (0 no effect, 100 complete control); for Plant response rating, Smartweed: scale 0 to 100, 0 no effect, 100 complete control", "from_the_text": "Seeds of plant species selected from corn (Zea mays), soybean (Glycine max), velvetleaf (Abutilon theophrasti), lambsquarters (Chenopodium album), wild poinsettia (Euphorbia heterophylla), palmer pigweed (Amaranthus palmeri), waterhemp (common waterhemp, Amaranthus rudis), surinam grass (Brachiaria decumbens), large (Lg) crabgrass (Digitaria sanguinalis), Brazilian crabgrass (Digitaria horizontalis), fall panicum (Panicum dichotomiflorum), giant foxtail (Setaria faberii), green foxtail (Setaria viridis), goosegrass (Eleusine indica), johnsongrass (Sorghum halepense), ragweed (common ragweed, Ambrosia elatior), barnyardgrass (Echinochloa crus-galli), sandbur (southern sandbur, Cenchrus echinatus), arrowleaf sida (Sida rhombifolia), Italian ryegrass (Lolium multiflorum), dayflower (Virginia (VA) dayflower, Commelina virginica), field bindweed (Convolvulus arvensis), morningglory (Ipomoea coccinea), nightshade (eastern black nightshade, Solanum ptycanthum), kochia (Kochia scoparia), yellow nutsedge (Cyperus esculentus), cocklebur (common cocklebur, Xanthium strumarium), smartweed (ladysthumb smartweed, and hairy beggarticks (Bidens pilosa), were planted into a silt loam soil and treated preemergence with test chemicals formulated in a non-phytotoxic solvent mixture which included a surfactant.\nAt the same time, plants from these crop and weed species and also horseweed (Canada horseweed, Conyza canadensis), waterhemp_RES1, (ALS & Triazine resistant common waterhemp, Amaranthus rudis), and waterhemp_RES2, (ALS & HPPD resistant common waterhemp, Amaranthus rudis) were planted in pots containing Redi-Earth® planting medium (Scotts Company, 14111 Scottslawn Road, Marysville, Ohio 43041) comprising spaghnum peat moss, vermiculite, wetting agent and starter nutrients were treated with postemergence applications of test chemicals formulated in the same manner. Plants ranged in height from 2 to 18 cm for postemergence treatments (1- to 4-leaf stage). Treated plants and controls were maintained in a greenhouse for 14 to 21 days, after which time all species were compared to controls and visually evaluated. Plant response ratings, summarized in Table E, are based on a scale of 0 to 100 where 0 is no effect and 100 is complete control. A dash (-) response means no test result."}, "[5]": {"conditions": "Preemergence, 31 g ai/ha, scale 0 to 100, 0 no effect, 100 complete control"}}, "data": [{"smiles": "FC(F)(F)c1cnn(-c2ccccc2Oc2ncc(Cl)cn2)c1", "note": "[Compound 16]", "values": [{"measurement": "Plant response rating (0 to 100), Barley", "setting": "barley, winter; 125 g ai/ha", "value": 10}, {"measurement": "Plant response rating (0 to 100), Barley", "setting": "barley, winter; 250 g ai/ha", "value": 35}, {"measurement": "Plant response rating, Barley", "setting": "barley, winter; 31 g ai/ha, 13 to 15 days", "value": 0}, {"measurement": "Plant response rating, Barley", "setting": "barley, winter; 62 g ai/ha", "value": 5}, {"measurement": "Goosegrass plant response rating", "setting": "goosegrass; 62 g ai/ha", "value": 98}, {"measurement": "Goosegrass plant response rating", "setting": "goosegrass; 125 g ai/ha", "value": 100}, {"measurement": "Goosegrass plant response rating", "setting": "goosegrass; 250 g ai/ha", "value": 100}, {"measurement": "Plant response rating, Goosegrass", "setting": "goosegrass; [5]", "value": 75}, {"measurement": "Nightshade plant response rating", "setting": "nightshade; 62 g ai/ha", "value": 65}, {"measurement": "Nightshade plant response rating", "setting": "nightshade; 125 g ai/ha", "value": 80}, {"measurement": "Nightshade plant response rating", "setting": "nightshade; 250 g ai/ha", "value": 98}, {"measurement": "Plant response rating, Nightshade", "setting": "nightshade; [5]", "value": 20}, {"measurement": "Plant response rating (0 to 100), Bromegrass, Downy", "setting": "bromegrass, downy [1]; 125 g ai/ha", "value": 5}, {"measurement": "Plant response rating (0 to 100), Bromegrass, Downy", "setting": "bromegrass, downy [1]; 250 g ai/ha", "value": 5}, {"measurement": "Plant response rating, Bromegrass, Downy", "setting": "bromegrass, downy [1]; 31 g ai/ha, 13 to 15 days", "value": 0}, {"measurement": "Plant response rating, Bromegrass, Downy", "setting": "bromegrass, downy [1]; 62 g ai/ha", "value": 5}, {"measurement": "Russian Thistle plant response rating", "setting": "Russian thistle; 62 g ai/ha", "value": 80}, {"measurement": "Russian Thistle plant response rating", "setting": "Russian thistle; 125 g ai/ha", "value": 90}, {"measurement": "Russian Thistle plant response rating", "setting": "Russian thistle; 250 g ai/ha", "value": 90}, {"measurement": "Plant response rating, Russian Thistle", "setting": "Russian thistle; [5]", "value": 0}, {"measurement": "Plant response rating (0 to 100), Bermudagrass", "setting": "bermudagrass [2]; 125 g ai/ha", "value": 50}, {"measurement": "Plant response rating (0 to 100), Bermudagrass", "setting": "bermudagrass [2]; 250 g ai/ha", "value": 55}, {"measurement": "Plant response rating, Bermudagrass", "setting": "bermudagrass [2]; 31 g ai/ha, 13 to 15 days", "value": 10}, {"measurement": "Plant response rating, Bermudagrass", "setting": "bermudagrass [2]; 62 g ai/ha", "value": 15}, {"measurement": "Bromegrass, Downy plant response rating", "setting": "bromegrass, downy [3]; 62 g ai/ha", "value": 60}, {"measurement": "Bromegrass, Downy plant response rating", "setting": "bromegrass, downy [3]; 125 g ai/ha", "value": 90}, {"measurement": "Bromegrass, Downy plant response rating", "setting": "bromegrass, downy [3]; 250 g ai/ha", "value": 95}, {"measurement": "Plant response rating, Bromegrass, Downy", "setting": "bromegrass, downy [3]; [5]", "value": 30}, {"measurement": "Bermudagrass plant response rating", "setting": "bermudagrass [4]; 62 g ai/ha", "value": 98}, {"measurement": "Bermudagrass plant response rating", "setting": "bermudagrass [4]; 125 g ai/ha", "value": 98}, {"measurement": "Bermudagrass plant response rating", "setting": "bermudagrass [4]; 250 g ai/ha", "value": 98}, {"measurement": "Plant response rating, Bermudagrass", "setting": "bermudagrass [4]; [5]", "value": 95}]}, {"smiles": "N#Cc1cccc(Oc2ncc(F)cn2)c1-n1cc(Cl)cn1", "note": "[Compound 73]", "values": [{"measurement": "Smartweed plant response rating", "setting": "smartweed; 16 g ai/ha", "value": 0}, {"measurement": "Smartweed plant response rating", "setting": "smartweed; 31 g ai/ha", "value": 0}, {"measurement": "Smartweed plant response rating", "setting": "smartweed; 62 g ai/ha", "value": 20}, {"measurement": "Plant response rating, Smartweed", "setting": "smartweed; 125 g ai/ha", "value": 98}, {"measurement": "Plant response rating, Smartweed", "setting": "smartweed; 250 g ai/ha", "value": 98}]}, {"smiles": "FC(F)c1cccc(Oc2ncc(Cl)cn2)c1-n1cc(Br)cn1", "note": "[Compound 194, 2-[2-(4-bromo-1H-pyrazol-1-yl)-3-(difluoromethyl)phenoxy]-5-chloropyrimidine]", "values": [{"measurement": "Smartweed plant response rating", "setting": "smartweed; 31 g ai/ha", "value": 0}, {"measurement": "Smartweed plant response rating", "setting": "smartweed; 62 g ai/ha", "value": 90}]}]}
